Measured values as given in US8299048B2, “Hexahydrocyclopentyl[f]indazole sulfonamides and derivatives thereof as selective glucocorticoid receptor modulators” (Merck Sharp & Dohme Corp., priority 2008, dated 2012).
Where two headings read alike, the source gives them in different places.

Molecular target: T1, human GR (Homo sapiens, UniProt P04150)
T1 sequence (P04150 1-777): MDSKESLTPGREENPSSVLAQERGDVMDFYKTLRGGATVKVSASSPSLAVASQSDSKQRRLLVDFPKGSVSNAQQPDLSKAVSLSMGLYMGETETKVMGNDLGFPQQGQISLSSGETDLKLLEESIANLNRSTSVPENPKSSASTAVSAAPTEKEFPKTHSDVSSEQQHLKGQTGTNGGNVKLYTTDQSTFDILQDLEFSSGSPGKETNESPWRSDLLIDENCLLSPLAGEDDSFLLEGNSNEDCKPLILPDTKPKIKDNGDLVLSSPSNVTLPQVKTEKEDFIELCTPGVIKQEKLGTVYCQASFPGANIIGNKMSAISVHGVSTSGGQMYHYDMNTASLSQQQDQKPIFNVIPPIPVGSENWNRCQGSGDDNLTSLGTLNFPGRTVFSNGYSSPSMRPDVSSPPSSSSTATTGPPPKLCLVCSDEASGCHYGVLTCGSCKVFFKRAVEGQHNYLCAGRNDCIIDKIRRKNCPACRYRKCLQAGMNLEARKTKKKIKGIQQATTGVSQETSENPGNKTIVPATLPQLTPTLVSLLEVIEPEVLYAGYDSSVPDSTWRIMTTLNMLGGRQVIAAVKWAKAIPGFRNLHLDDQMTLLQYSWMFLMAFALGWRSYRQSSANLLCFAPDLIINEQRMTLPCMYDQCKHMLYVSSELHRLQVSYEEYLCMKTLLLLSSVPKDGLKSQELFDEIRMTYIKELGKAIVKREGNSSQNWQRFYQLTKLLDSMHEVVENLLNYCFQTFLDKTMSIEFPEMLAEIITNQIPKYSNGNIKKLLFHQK
Assay: Transrepression Assay (GITAR), TNFα-β-lactamase reporter in U937 cells
Assay type: cell-based
Parameters: U937 cells contain an endogenous glucocorticoid receptor (GR); endogenous in cells; host or cells: U937 cells stably transfected with the TNF-alpha promoter/beta-lactamase reporter
Settings: for GITAR > GRAMM % SEP: GITAR Emax minus GRAMMER Emax; for EC50: U937 cells, inflection point, read-out: Transrepression U937 Cells GITAR IP
How it was run: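 Repression normalised to 100 nM dexamethasone (100%), measured with CCF2-AM β-lactamase substrate after 70–90 min at room temperature. Stably transfected U937 cells were exposed to compound 30–45 min, then to PMA (5 ng/ml final) plus LPS (100 ng/ml final) overnight (~18 hr), 37° C.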

[1] = U-937, U937 cells, maximum activity, read-out: Transrepression U937 Cells GITAR Emax
[2] = U-937, activity repressed by 100 nM dexamethasone alone set as 100%, read-out: maximal activity in the transrepression (GITAR) assay

With `C[C@]12Cc3cnn(-c4ccc(F)cc4)c3C=C1CC[C@@H]2CN(CCO)S(=O)(=O)c1cccc(Cl)c1Cl` [Example 61, 2,3-dichloro-N-{[(4αR,5S)-1-(4-fluorophenyl)-4α-methyl-1,4,4α,5,6,7-hexahydrocyclopenta[f]indazol-5-yl]methyl}-N-(2-hydroxyethyl)benezenesulfonamide] the “GITAR > GRAMM % SEP” value was 25.5%, the EC50 was 1550 nM and the Emax [1] was 31.3%. The Emax [2] was > 5%.

For `Cc1oncc1S(=O)(=O)N(CC#N)C[C@H]1CCC2=Cc3c(cnn3-c3ccc(F)cc3)C[C@@]21C` [Example 23, N-(cyanomethyl)-N-{[(4αR,5S)-1-(4-fluorophenyl)-4α-methyl-1,4,4α,5,6,7-hexahydrocyclopenta[f]indazol-5-yl]methyl}-5-methylisoxazole-4-sulfonamide], the “GITAR > GRAMM % SEP” value was 31.3%, the EC50 was 2250 nM and the Emax [1] was 34%. For the same compound, the Emax [2] was > 5%.

With `Cc1cc(S(=O)(=O)N(CC#N)C[C@H]2CCC3=Cc4c(cnn4-c4ccc(F)cc4)C[C@@]32C)c(C)o1` [Example 33, (4αR,5S)-5-({(cyanomethyl)[(2,5-dimethyl-3-furyl)sulfonyl]amino}methyl)-1-(4-fluorophenyl)-4α-methyl-1,4,4α,5,6,7-hexahydrocyclopenta[f]indazol-2-ium] the “GITAR > GRAMM % SEP” value was 44.5%, the EC50 was 1200 nM and the Emax [1] was 59.7%. For the same compound, the Emax [2] was > 5%.

`C[C@]12Cc3cnn(-c4ccc(F)cc4)c3C=C1CC[C@@H]2CN(Cc1ccccc1F)S(=O)(=O)c1cccc(C(N)=O)c1` [Example 192, 3-[((2-fluorobenzyl){[(4αR,5S)-1-(4-fluorophenyl)-4α-methyl-1,4,4α,5,6,7-hexahydrocyclopenta[f]indazol-5-yl]methyl}amino)sulfonyl]benzamide] was tested, and the “GITAR > GRAMM % SEP” value was 23.2%, the EC50 was 2910 nM and the Emax [1] was 27.5%. The Emax [2] was > 5%.

`C[C@]12Cc3cnn(-c4ccc(F)cc4)c3C=C1CC[C@@H]2CN(CC#N)S(=O)(=O)Cc1ccccc1` [Example 48, N-(cyanomethyl)-N-{[(4αR,5S)-1-(4-fluorophenyl)-4α-methyl-1,4,4α,5,6,7-hexahydrocyclopenta[f]indazol-5-yl]methyl}-1-phenylmethanesulfonamide] was tested, and the “GITAR > GRAMM % SEP” value was 15.7%, the EC50 was 175 nM and the Emax [1] was 24.5%. For the same compound, the Emax [2] was > 5%.

With `COC(=O)c1ccccc1S(=O)(=O)N(C[C@H]1CCC2=Cc3c(cnn3-c3ccc(F)cc3)C[C@@]21C)C[C@H](C)O` [Example 187, methyl 2-({{[(4αR,5S)-1-(4-fluorophenyl)-4α-methyl-1,4,4α,5,6,7-hexahydrocyclopenta[f]indazol-5-yl]methyl}[(2S)-2-hydroxypropyl]amino}sulfonyl)benzoate] the “GITAR > GRAMM % SEP” value was 35.6%, the EC50 was 392 nM and the Emax [1] was 71.5%. For the same compound, the Emax [2] was > 5%.

`C[C@]12Cc3cnn(-c4ccc(F)cc4)c3C=C1CC[C@@H]2CN(CCO)S(=O)(=O)c1ccccc1F` [Example 17, 2-fluoro-N-{[(4αR,5S)-1-(4-fluorophenyl)-4α-methyl-1,4,4α,5,6,7-hexahydrocyclopenta[f]indazol-5-yl]methyl}-N-(2-hydroxyethyl)benzenesulfonamide] was tested, and the EC50 was 347 nM, the Emax [1] was 82.1% and the Emax [2] was > 5%.

For `C[C@]12Cc3cnn(-c4ccc(F)cc4)c3C=C1CC[C@@H]2CN(CC#N)S(=O)(=O)c1ccc(Cl)c(C(F)(F)F)c1` [Example 27, 4-chloro-N-(cyanomethyl)-N-{[(4αR,5S)-1-(4-fluorophenyl)-4α-methyl-1,4,4α,5,6,7-hexahydrocyclopenta[f]indazol-5-yl]methyl}-3-(trifluoromethyl)benzenesulfonamide], the “GITAR > GRAMM % SEP” value was 10.0%, the EC50 was 638 nM and the Emax [1] was 13%. The Emax [2] was > 5%.

In the case of `Cc1noc(C)c1S(=O)(=O)N(CC1CCCO1)C[C@H]1CCC2=Cc3c(cnn3-c3ccc(F)cc3)C[C@@]21C` (stereo partly drawn) [Example 170, N-{[(4αR,5S)-1-(4-fluorophenyl)-4α-methyl-1,4,4α,5,6,7-hexahydrocyclopenta[f]indazol-5-yl]methyl}-3,5-dimethyl-N-(tetrahydrofuran-2-ylmethyl)isoxazole-4-sulfonamide], the “GITAR > GRAMM % SEP” value is reported as 11.8%, the EC50 is reported as 759 nM and the Emax [1] is reported as 87.7%. The Emax [2] was > 5%.

`Cc1ccc(S(=O)(=O)N(CC#N)C[C@H]2CCC3=Cc4c(cnn4-c4ccc(F)cc4)C[C@@]32C)s1` [Example 31, N-(cyanomethyl)-N-{[(4αR,5S)-1-(4-fluorophenyl}-4α-methyl-1,4,4α,5,6,7-hexahydrocyclopenta[f]indazol-5-yl]methyl}-5-methylthiophene-2-sulfonamide] was tested, and the “GITAR > GRAMM % SEP” value was 34.0%, the EC50 was 679 nM and the Emax [1] was 54.8%. For the same compound, the Emax [2] was > 5%.

`COC(=O)c1sccc1S(=O)(=O)N(CC#N)C[C@H]1CCC2=Cc3c(cnn3-c3ccc(F)cc3)C[C@@]21C` [Example 34, methyl 3-[((cyanomethyl){[(4αR,5S)-1-(4-fluorophenyl)-4α-methyl-1,4,4α,5,6,7-hexahydrocyclopenta[f]indazol-5-yl]methyl}amino)sulfonyl]thiophene-2-carboxylate] was tested, and the “GITAR > GRAMM % SEP” value was 8.9%, the EC50 was 1780 nM and the Emax [1] was 45.9%. For the same compound, the Emax [2] was > 5%.

In the case of `Cn1nc(C(F)(F)F)cc1-c1ccc(S(=O)(=O)N(CC#N)C[C@H]2CCC3=Cc4c(cnn4-c4ccc(F)cc4)C[C@@]32C)s1` [Example 35], the “GITAR > GRAMM % SEP” value is reported as 34.6%, the EC50 is reported as 777 nM and the Emax [1] is reported as 39.5%. For the same compound, the Emax [2] was > 5%.

`C[C@]12Cc3cnn(-c4ccc(F)cc4)c3C=C1CC[C@@H]2CN(CCO)S(=O)(=O)Cc1ccccc1C(N)=O` [Example 198, 2-({[{[(4αR,5S)-1-(4-fluorophenyl)-4α-methyl-1,4,4α,5,6,7-hexahydrocyclopenta[f]indazol-5-yl]methyl}(2-hydroxyethyl)amino]sulfonyl}methyl)benzamide] was tested, and the “GITAR > GRAMM % SEP” value was 7.3%, the EC50 was 1150 nM and the Emax [1] was 15.5%. The Emax [2] was > 5%.

In the case of `C[C@]12Cc3cnn(-c4ccc(F)cc4)c3C=C1CC[C@@H]2CN(CCC#N)S(=O)(=O)c1ccccc1F` [Example 16, N-(2-cyanoethyl)-2-fluoro-N-{[(4αR,5S)-1-(4-fluorophenyl)-4α-methyl-1,4,4α,5,6,7-hexahydrocyclopenta[f]indazol-5-yl]methyl}benzenesulfonamide], the EC50 is reported as 268 nM, the Emax [1] is reported as 84.5% and the Emax [2] is reported as > 5%.

With `Cn1cnc(S(=O)(=O)N(CC#N)C[C@H]2CCC3=Cc4c(cnn4-c4ccc(F)cc4)C[C@@]32C)c1` [Example 37, N-(cyanomethyl)-N-{[(4αR,5S)-1-(4-fluorophenyl}-4α-methyl-1,4,4α,5,6,7-hexahydrocyclopenta[f]indazol-5-yl]methyl}-1-methyl-1H-imidazole-4-sulfonamide] the “GITAR > GRAMM % SEP” value was 30.9%, the EC50 was 1350 nM and the Emax [1] was 33.8%. For the same compound, the Emax [2] was > 5%.

In the case of `COCCN(C[C@H]1CCC2=Cc3c(cnn3-c3ccc(F)cc3)C[C@@]21C)S(=O)(=O)c1cn(C)nc1C(F)(F)F` [Example 172, N-{[(4αR,5S)-1-(4-fluorophenyl)-4α-methyl-1,4,4α,5,6,7-hexahydrocyclopenta[f]indazol-5-yl]methyl}-N-(2-methoxyethyl)-1-methyl-3-(trifluoromethyl)-1H-pyrazole-4-sulfonamide], the “GITAR > GRAMM % SEP” value is reported as 31.8%, the EC50 is reported as 718 nM and the Emax [1] is reported as 42.4%. The Emax [2] was > 5%.

In the case of `COC(=O)c1ccccc1CS(=O)(=O)N(C[C@H]1CCC2=Cc3c(cnn3-c3ccc(F)cc3)C[C@@]21C)C[C@@H](C)O` [Example 180, methyl 2-[({{[(4αR,5S)-1-(4-fluorophenyl)-4α-methyl-1,4,4α,5,6,7-hexahydrocyclopenta[f]indazol-5-yl]methyl}[(2R)-2-hydroxypropyl]amino}sulfonyl)methyl]benzoatee], the “GITAR > GRAMM % SEP” value is reported as 39.5%, the EC50 is reported as 187 nM and the Emax [1] is reported as 77.7%. For the same compound, the Emax [2] was > 5%.

With `C[C@]12Cc3cnn(-c4ccc(F)cc4)c3C=C1CC[C@@H]2CN(CC#N)S(=O)(=O)c1ccccc1Cl` [Example 50, 2-chloro-N-(cyanomethyl)-N-{[(4αR,5S)-1-(4-fluorophenyl)-4α-methyl-1,4,4α,5,6,7-hexahydrocyclopenta[f]indazol-5-yl]methyl}benzenesulfonamide] the “GITAR > GRAMM % SEP” value was 46.2%, the EC50 was 959 nM and the Emax [1] was 61.3%. The Emax [2] was > 5%.
